Series [1] relates to E. coli 25922. The format is cell-based, Escherichia coli. The following applies: 25922, 20 h. The text has this:
(§1) Escherichia coli ATCC25922, E. coli UB1005, Pseudomonas aeruginosa ATCC27853, Salmonella typhimurium ATCC14028, S. typhimurium C7731, Staphylococcus aureus ATCC29213, Methicillin-resistant S. aureus (MRSA) ATCC43300, S. epidermidis ATCC12228, and Enterococcus faecalis ATCC29212 were stored by the institute of animal nutrition, Northeast Agricultural University (Harbin, China). Multidrug-Resistant E. coli HP73 and E. coli HP74 were clinically isolated from swine-derived Escherichia coli and stored by the institute of animal nutrition, Northeast Agricultural University (Harbin, China).
(§2) The MICs were determined using a broth microdilution method with reference to Clinical and Laboratory Standards Institute (CLSI) guidelines ([Wiegand et al., 2008]). After a two-fold serial dilution of the peptides (50 μl, dilution buffer: 0.01% acetic acid containing 0.2% BSA) prepared in a 96-well plate, a series of an equal volume of bacterial solution (50 μl) prepared in Mueller-Hinton broth (MHB) were added to the same 96-well plate, and the final bacterial inoculum size in each well of the 96-well plate was approximately 5 × 10^5 CFU/ml. As positive and negative controls, bacteria solution without peptides and blank samples without bacteria were prepared in the same 96-well plate. […] The lowest peptide concentration at which there was no increase in optical density was referred to as the MIC.

The subject of series [2] is E. coli UB1005. In kind it is cell-based, Escherichia coli. The following applies: UB1005, 20 h.
Source text: as §1, §2

Series [3] deals with P. aeruginosa 27853. The format is cell-based, Pseudomonas aeruginosa. The following applies: 27853, 20 h.
Source text: as §1, §2

For series [4], the system named is S. typhimurium 14028. The format is cell-based, Salmonella typhimurium. Conditions: 14028, 20 h.
Source text: as §1, §2

For series [5], the system named is S. typhimurium C7731. In kind it is cell-based, Salmonella typhimurium. Conditions: C7731, 20 h.
Source text: as §1, §2

The subject of series [6] is S. aureus 29213. The format is cell-based, Staphylococcus aureus. Conditions: 29213, 20 h.
Source text: as §1, §2

In series [7] the test system is S. epidermidis 12228. In kind it is cell-based. The following applies: 12228, 20 h.
Source text: as §1, §2

The test system of series [8] is E. faecalis 29212. The format is cell-based, Enterococcus faecalis. Conditions: 29212, 20 h.
Source text: as §1, §2

Series [9] relates to MRSA 43300. In kind it is cell-based, Methicillin-resistant S. aureus. Conditions: 43300, 20 h.
Source text: as §1, §2

Series [10] has as its system 9 bacterial strains. Briefly: Geometric mean MIC over the 9 bacterial strains. The following applies: geometric mean of the 9 strains of Table 1. The format is cell-based. The method, then:
as §2

The subject of series [11] is E. coli HP73. The series is described as follows: microbe, parasite or virus in culture. Conditions: HP73, 20 h; read-out: MICs, E. coli HP73. In kind it is cell-based, Escherichia coli.
Source text: as §1, §2

Series [12] relates to E. coli HP74. The series is described as follows: microbe, parasite or virus in culture. In kind it is cell-based, Escherichia coli. The following applies: HP74, 20 h; read-out: MICs, E. coli HP74.
Source text: as §1, §2

Series [13] relates to HEK293T. The series is described as follows: MTT cytotoxicity assay. In kind it is cell-based, human. The method, then:
(§3) 3-(4,5-dimethylthiozol-2-yl)-2,5-diphenyltetrazolium bromide (MTT) assay and live/dead cell staining assay were conducted to assess the peptide cytotoxicity. For the MTT assay, cell lines were seeded and passaged twice in high-glucose Dulbecco’s modified Eagle’s medium (DMEM, containing 100 μg/ml streptomycin, 100 U/ml penicillin, and 10% vol/vol fetal bovine serum) or Dulbecco’s Modified Eagle Medium/Nutrient Mixture F-12 (DMEM/F-12, containing 100 μg/ml streptomycin, 100 U/ml penicillin, and 10% vol/vol fetal bovine serum) at a 5% CO2 incubator (37°C). The cells (approximately 50,000 cells per well) were cultured in a 96-well plate at a 5% CO2 incubator for 1 day. Then various concentrations of peptide solutions (50 μl) were added to the plate and incubated for another 1 day. The cells solution without peptides and blank samples without cells and peptides were prepared in the same 96-well plate as positive and negative controls, respectively. Subsequently, MTT (0.5 mg/ml, 20 μl per well) was added and the plate was incubated for another 4 h. Removed all supernatant from the plate and added 150 μl of dimethyl sulfoxide. Finally, a microplate reader (Tecan GENios F129004, Austria) was used to record the absorbance data at OD570 nm. Melittin was employed as a control peptide. The cell viability was calculated using the previously described equation ([Lai et al., 2021]).
For orientation: Formazan colour is commonly taken as a measure of viable cells.

The test system of series [14] is HEK293. Briefly: Live/dead cell staining (calcein-AM/PI). The format is cell-based, human. The following applies: peptide concentration less than 64 μM. The text has this: For live/dead cell staining assay, HEK293 cell lines, calcein-AM, and propidium iodide (PI) were employed to assess the cell viability. The processes that come next are the same as in the prior report ([Lai et al., 2021]). There were two technical replicates used in the experiment.

In series [15] the test system is IPEC-J2. Briefly: MTT cytotoxicity assay. The format is cell-based, porcine. Here is the method:
as §3

Series [16] concerns the target proteinase K (Parengyodontium album, UniProt P06873). Briefly: Proteolytic stability, tricine-SDS-PAGE. In kind it is in vitro ADME. The following applies: peptide 2.56 mM + 500 μg/ml protease (equal volumes), 16.5% tricine-SDS-PAGE. The method, then: 16.5% tricine−SDS − PAGE was used to evaluate the proteolytic stability of the peptides. The peptides (2.56 mM, 50 μl) were incubated with protease (500 μg/ml, 50 μl) at 37°C. After incubating for 1, 2, 4, or 8 h, the mixture (20 μl) was drawn out and placed in a bath of boiling water for 5 min. The mixture was then diluted to the suitable concentration for 16.5% tricine-SDS-PAGE analysis.

[17] abbreviates: peptide concentration less than 64 μM.
[18] abbreviates: at the test concentrations, 1 day incubation.

In brackets after ≈: the same amount, converted by molar mass. Ends that are not written are not given here. Peptide text beside a SMILES is read from it. * marks the point of attachment. Octanoyl = CCCCCCCC(=O)*; Hexanoyl = CCCCCC(=O)*

proteinase K, sequence (P06873 106-384): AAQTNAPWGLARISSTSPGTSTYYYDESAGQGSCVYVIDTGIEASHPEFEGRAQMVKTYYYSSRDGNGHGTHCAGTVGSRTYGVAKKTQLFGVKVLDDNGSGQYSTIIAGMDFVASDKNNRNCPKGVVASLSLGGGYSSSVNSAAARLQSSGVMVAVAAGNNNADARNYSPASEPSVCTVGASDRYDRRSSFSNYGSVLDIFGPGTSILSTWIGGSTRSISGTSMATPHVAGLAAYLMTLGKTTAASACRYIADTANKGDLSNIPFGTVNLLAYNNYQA

As for `CCCCCC(=O)NCCCC[C@H](NC(=O)[C@H](CC(C)C)NC(=O)[C@H](CCCCN)NC(=O)[C@H](CCCCN)NC(=O)[C@H](CC(C)C)NC(=O)[C@H](CCCCNC(=O)CCCCC)NC(=O)[C@H](CCCCN)NC(=O)[C@H](CCCCN)NC(=O)[C@H](CC(C)C)NC(=O)[C@H](CCCCN)NC(=O)[C@H](CCCCN)NC(=O)[C@H](CC(C)C)NC(=O)[C@@H](N)Cc1c[nH]c2ccccc12)C(=O)N[C@@H](CCCCN)C(=O)N[C@@H](CCCCN)C(=O)O` [WL-C6] (H-WLKKLKKK(Hexanoyl)LKKLK(Hexanoyl)KK-OH), the “MICs, E. coli 25922” value in series [1] amounted to 4 µM. In series [2], the “MICs, E. coli UB1005” value is 4 µM. Also, the “MICs, P. aeruginosa 27853” value in series [3] worked out at 2 µM. In addition, the “MICs, S. typhimurium 14028” value in series [4] came to 2 µM. Moreover, the “MICs, S. typhimurium C7731” value in series [5] came to 4 µM. Moreover, in series [6], the “MICs, S. aureus 29213” value came to 4 µM. Besides, the “MICs, S. epidermidis 12228” value in [7] came out at 4 µM. Further, the “MICs, E. faecalis 29212” value in [8] worked out at 4 µM. The “MICs, MRSA 43300” value in [9] was found to be 4 µM. Moreover, the “GM, geometric mean MICs from the 9 bacterial strains” value (from here on “GM, geometric mean MICs”) in [10] turned out to be 3.43 µM. The MIC in [11] and in series [12] was 4 µM (≈ 8.54 µg/mL) each time. Also, the “Toxicity toward HEK293T” value in [13] (setting [17]) is “negligible toxicity”. For the same compound, in [14], the “Toxicity toward HEK293” value is given as “negligible toxicity”. Further, in series [15] (setting [17]), the “Toxicity toward IPEC-J2” value was “negligible toxicity”. The “Stability to proteinase K (band on gel)” value in [16] (37°C, 1, 2, 4, 8 h) was “cleaved by proteinase K”. The “Digestion period beyond which the bands gradually vanished, proteinase K” value in series [16] (37°C) is given as greater than 1 h.
As for `CCCCCCCC(=O)NCCCC[C@H](NC(=O)[C@H](CC(C)C)NC(=O)[C@H](CCCCN)NC(=O)[C@H](CCCCN)NC(=O)[C@H](CC(C)C)NC(=O)[C@H](CCCCNC(=O)CCCCCCC)NC(=O)[C@H](CCCCN)NC(=O)[C@H](CCCCN)NC(=O)[C@H](CC(C)C)NC(=O)[C@H](CCCCN)NC(=O)[C@H](CCCCN)NC(=O)[C@H](CC(C)C)NC(=O)[C@@H](N)Cc1c[nH]c2ccccc12)C(=O)N[C@@H](CCCCN)C(=O)N[C@@H](CCCCN)C(=O)O` [WL-C8] (H-WLKKLKKK(Octanoyl)LKKLK(Octanoyl)KK-OH), the “MICs, E. coli 25922” value in [1] was 4 µM. For the same compound, the “MICs, E. coli UB1005” value in series [2] was 2 µM. The “MICs, P. aeruginosa 27853” value in series [3] worked out at 4 µM. The “MICs, S. typhimurium 14028” value in series [4] was 4 µM. In addition, the “MICs, S. typhimurium C7731” value in series [5] amounted to 4 µM. In addition, the “MICs, S. aureus 29213” value in series [6] was 4 µM. Also, in [7], the “MICs, S. epidermidis 12228” value was found to be 4 µM. Moreover, in series [8], the “MICs, E. faecalis 29212” value came out at 4 µM. Also, the “MICs, MRSA 43300” value in series [9] was 4 µM. The “GM, geometric mean MICs” value in [10] worked out at 3.70 µM. The MIC in [11] and in [12] was 4 µM (≈ 8.76 µg/mL) in each case. The “Concentration above which significant cytotoxicity toward HEK293T” value in series [13] (1 day incubation) was “greater than 32 μM”. The “Concentration above which significant cytotoxicity toward IPEC-J2” value in series [15] (1 day incubation) is reported as “greater than 32 μM”.
As to WLKKLKKKLKKLKKK [WL], the “MICs, E. coli 25922” value in series [1] was 32 µM. In [2], the “MICs, E. coli UB1005” value was 32 µM. In addition, the “MICs, P. aeruginosa 27853” value in series [3] came out at 32 µM. Moreover, the “MICs, S. typhimurium 14028” value in series [4] is 32 µM. In addition, in [5], the “MICs, S. typhimurium C7731” value worked out at 32 µM. Further, the “MICs, S. aureus 29213” value in series [6] was 128 µM. Also, in series [7], the “MICs, S. epidermidis 12228” value stood at 128 µM. In addition, the “MICs, E. faecalis 29212” value in series [8] is greater than 128 µM. In addition, the “MICs, MRSA 43300” value in series [9] came to 128 µM. Besides, the “GM, geometric mean MICs” value in [10] came to 64.00 µM. Also, the “Cytotoxicity toward HEK293T” value in [13] (setting [18]) is recorded as “no significant cytotoxicity”. Further, the “Cytotoxicity toward IPEC-J2” value in [15] (setting [18]) was “no significant cytotoxicity”.

(Values after paper PMC9780499, “Designing double-site lipidated peptide amphiphiles as potent antimicrobial biomaterials to combat multidrug-resistant bacteria” (Frontiers in Microbiology, 2022).)
